Data reported in PubChem BioAssay AID977614 (Broad Institute, 2014).
Activity calls are given as the source filed them.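 Rule for the calls: active = parasite count per well reduced by over 3 SD from the mean, with host cell number above 80% of untreated; inactive = the rest.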

system: L. donovani amastigotes in THP-1 macrophages, DAPI imaging, 72 h; test: L. donovani intracellular amastigote growth inhibitors, imaging, THP-1 host macrophages, single concentration (AID 977614);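 note: signal is the parasite per host cell ratio from DAPI stained kinetoplasts and nuclei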

SMILES	AC50
COc1ccc(C(=O)N2C[C@@H]3[C@H](c4ccccc42)[C@H](CO)N3Cc2ccccc2Cl)cc1	> 10 µM (inactive)
Cc1ccc(S(=O)(=O)N2C[C@H]3[C@@H](c4ccccc42)[C@@H](CO)N3Cc2cccnc2)cc1	> 10 µM (inactive)
C/C=C/c1ccc([C@@H]2[C@@H](CO)N[C@@H]2CN(CC(C)C)C(=O)c2ccccn2)cc1	> 10 µM (inactive)
C[C@H]1CN([C@@H](C)CO)C(=O)CCCn2cc(nn2)CO[C@@H]1CN(C)C(=O)Oc1ccc2ccccc2c1	> 10 µM (inactive)
COc1ccc(CN(C)C[C@@H]2OCc3cnnn3CCCC(=O)N([C@H](C)CO)C[C@H]2C)cc1	> 10 µM (inactive)
C[C@H](CO)N1C[C@H](C)[C@@H](CN(C)C(=O)Nc2cccc(C(F)(F)F)c2)OCc2cn(nn2)CCCC1=O	> 10 µM (inactive)
CN(C[C@H]1[C@@H](c2ccc(C3=CCCC3)cc2)[C@@H](CO)N1CCC(F)(F)F)S(C)(=O)=O	> 10 µM (inactive)
CN1C[C@@H]2[C@H](c3ccccc31)[C@@H](CO)N2S(=O)(=O)c1ccccc1	> 10 µM (inactive)
C[C@H]1CN([C@@H](C)CO)C(=O)CCCn2nncc2CO[C@H]1CN(C)CC1CCCCC1	> 10 µM (inactive)
O=C(Cc1ccccc1)N1C[C@H]2[C@@H](c3ccccc31)[C@@H](CO)N2S(=O)(=O)c1ccccc1	> 10 µM (inactive)
CC(=O)N1[C@H](CNC(=O)C2CC2)[C@H](c2ccc(-c3ccccc3)cc2)[C@@H]1CO	> 10 µM (inactive)
C[C@H]1CN([C@@H](C)CO)C(=O)CCCn2nncc2CO[C@H]1CN(C)S(=O)(=O)c1ccc2c(c1)OCCCO2	> 10 µM (inactive)
C/C=C/c1ccc([C@H]2[C@H](CO)N(C(C)=O)[C@H]2CNC(=O)c2ccccc2)cc1	> 10 µM (inactive)
CNC[C@@H]1OCc2cnnn2CCCC(=O)N([C@H](C)CO)C[C@H]1C	> 10 µM (inactive)
C/C=C/c1ccc([C@H]2[C@@H](CNC(C)C)N(C(=O)c3ccccn3)[C@H]2CO)cc1	> 10 µM (inactive)
COCCNC[C@H]1[C@H](c2ccccc2)[C@H](CO)N1c1nc(C)c(C)s1	> 10 µM (inactive)
O=C(NC[C@H]1N[C@H](CO)[C@@H]1c1ccc(-c2cncnc2)cc1)C1CCCCC1	> 10 µM (inactive)
O=C(NC[C@@H]1[C@H](c2ccccc2)[C@H](CO)N1C(=O)C1CCC1)NC1CCCC1	> 10 µM (inactive)
CCCNC(=O)N1[C@H](CNC(=O)c2cccc(F)c2)[C@@H](c2ccccc2)[C@@H]1CO	> 10 µM (inactive)
O=C(CN1CCOCC1)NC[C@H]1N[C@H](CO)[C@@H]1c1ccc(-c2ccccc2)cc1	> 10 µM (inactive)
C/C=C/c1ccc([C@H]2[C@@H](CN(C)C(=O)CC3CC3)N(C(=O)C3CC3)[C@H]2CO)cc1	> 10 µM (inactive)
C[C@@H]1CN([C@@H](C)CO)C(=O)CCCn2nncc2CO[C@H]1CN(C)Cc1cccc2c1OCCCO2	> 10 µM (inactive)
CCCC(=O)N1C[C@@H]2[C@H](c3ccccc31)[C@H](CO)N2Cc1cocn1	> 10 µM (inactive)
CCCNC(=O)N1C[C@H]2[C@@H](c3ccccc31)[C@H](CO)N2Cc1cccc(OC)c1	> 10 µM (inactive)
CC(=O)N1[C@@H](CO)[C@@H](c2ccccc2)[C@@H]1CN(C)S(=O)(=O)c1ccccc1	> 10 µM (inactive)
CCCNC(=O)N1C[C@@H]2[C@H](c3ccccc31)[C@H](CO)N2Cc1cccc(OC)c1	> 10 µM (inactive)

SMILES	AC50
C[C@@H]1CN([C@@H](C)CO)C(=O)CCCn2nncc2CO[C@H]1CN(C)C(=O)c1ccc(N2CCN(C)CC2)cc1	> 10 µM (inactive)
C/C=C/c1ccc([C@H]2[C@@H](CNC(C)=O)N(C(=O)Cc3ccncc3)[C@H]2CO)cc1	> 10 µM (inactive)
O=C(c1ccncc1)N1C[C@@H]2[C@H](c3ccccc31)[C@H](CO)N2Cc1ccccc1F	> 10 µM (inactive)
C[C@@H]1CN([C@@H](C)CO)C(=O)CCCn2nncc2CO[C@H]1CN(C)C(=O)Nc1ccccc1C(F)(F)F	> 10 µM (inactive)
C[C@H](CO)N1C[C@H](C)[C@@H](CN(C)S(=O)(=O)c2ccc3c(c2)OCCCO3)OCc2cnnn2CCCC1=O	> 10 µM (inactive)
O=C(c1ccccc1F)N1C[C@@H]2[C@H](c3ccccc31)[C@H](CO)N2C(=O)Nc1ccccc1	> 10 µM (inactive)
CC(=O)N1[C@H](CO)[C@H](c2ccccc2)[C@H]1CN(CC1CCC1)C(=O)CN(C)C	> 10 µM (inactive)
O=C(Nc1ccccc1F)N1C[C@H]2[C@@H](c3ccccc31)[C@@H](CO)N2C(=O)Cc1cccnc1	> 10 µM (inactive)
C[C@@H]1CN([C@H](C)CO)C(=O)CCCn2nncc2CO[C@H]1CN(C)C(=O)Nc1ccc2c(c1)OCCO2	> 10 µM (inactive)
Cc1cccc(S(=O)(=O)N2C[C@H]3[C@@H](c4ccccc42)[C@H](CO)N3C(=O)c2ccccc2)c1	> 10 µM (inactive)
C[C@H](CO)N1C[C@H](C)[C@H](CN(C)C(=O)Oc2ccc3ccccc3c2)OCc2cn(nn2)CCCC1=O	> 10 µM (inactive)
COc1ccc(C(=O)N2C[C@@H]3[C@H](c4ccccc42)[C@@H](CO)N3C(=O)NC(C)C)cc1	> 10 µM (inactive)
CCC(=O)N1[C@@H]2CN(C(=O)Nc3ccc(Cl)cc3)c3ccccc3[C@@H]2[C@@H]1CO	> 10 µM (inactive)
O=S(=O)(c1ccc(F)cc1)N1C[C@H]2[C@@H](c3ccccc31)[C@@H](CO)N2Cc1ccccc1Cl	> 10 µM (inactive)
O=S(=O)(NC[C@H]1[C@@H](c2ccccc2)[C@H](CO)N1CC1CC1)c1ccccc1	> 10 µM (inactive)
CCC(=O)N1[C@H](CO)[C@H]2c3ccccc3N(S(=O)(=O)c3ccc(F)cc3)C[C@H]21	> 10 µM (inactive)
C[C@@H]1CN([C@@H](C)CO)C(=O)CCCn2cc(nn2)CO[C@@H]1CN(C)C(=O)Oc1ccc2ccccc2c1	> 10 µM (inactive)
C[C@H](CO)N1C[C@H](C)[C@@H](CN(C)Cc2cccc3c2OCCCO3)OCc2cnnn2CCCC1=O	> 10 µM (inactive)
CCS(=O)(=O)N(C)C[C@@H]1N[C@H](CO)[C@@H]1c1ccc(C#CC(C)C)cc1	> 10 µM (inactive)
O=C(NC[C@@H]1[C@H](c2ccccc2)[C@@H](CO)N1Cc1cccnc1)c1ccccn1	> 10 µM (inactive)
C/C=C/c1ccc([C@@H]2[C@@H](CO)N[C@@H]2CN(CC)C(=O)CN2CCOCC2)cc1	> 10 µM (inactive)
C[C@H](CO)N1C[C@H](C)[C@@H](CN(C)C(=O)c2cc(-c3ccccc3)on2)OCc2cnnn2CCCC1=O	> 10 µM (inactive)
C[C@@H]1CN([C@@H](C)CO)C(=O)CCCn2nncc2CO[C@H]1CN(C)C(=O)Nc1cccc(Oc2ccccn2)c1	> 10 µM (inactive)
CN(C)CC(=O)N1C[C@@H]2[C@H](c3ccccc31)[C@H](CO)N2C(=O)c1ccccn1	> 10 µM (inactive)
CC(C)NC(=O)N1[C@H](CO)[C@@H]2c3ccccc3N(C)C[C@@H]21	> 10 µM (inactive)
CC(=O)N1[C@@H]2CN(C(=O)c3ccc(F)cc3)c3ccccc3[C@@H]2[C@@H]1CO	> 10 µM (inactive)

SMILES	AC50
C[C@H](CO)N1C[C@H](C)[C@H](CN(C)CC2CCCCC2)OCc2cnnn2CCCC1=O	> 10 µM (inactive)
CC(=O)N1[C@H](CN(CC2CCC2)C(=O)CN(C)C)[C@@H](c2ccccc2)[C@@H]1CO	> 10 µM (inactive)
COCC(=O)N1[C@@H](CO)[C@@H]2c3ccccc3N(C(=O)c3cccnc3)C[C@@H]21	> 10 µM (inactive)
Cc1cccc(S(=O)(=O)N2C[C@@H]3[C@H](c4ccccc42)[C@@H](CO)N3C(=O)c2ccccc2)c1	> 10 µM (inactive)
CCCNC(=O)N1C[C@@H]2[C@H](c3ccccc31)[C@H](CO)N2C(=O)CN1CCOCC1	> 10 µM (inactive)
CC(C)NC(=O)N1[C@H](CO)[C@@H](c2ccccc2)[C@H]1CN(C)C(=O)c1cccnc1	> 10 µM (inactive)
CC(=O)N1[C@H](CO)[C@@H]2c3ccccc3N(S(=O)(=O)c3ccccc3C)C[C@@H]21	> 10 µM (inactive)
CCCNC(=O)N1[C@@H](CO)[C@@H]2c3ccccc3N(C(=O)Nc3cccc(Cl)c3)C[C@@H]21	> 10 µM (inactive)
C/C=C/c1ccc([C@H]2[C@@H](CNC(=O)CC3CC3)N(C(=O)CC)[C@H]2CO)cc1	> 10 µM (inactive)
CCN(C[C@@H]1[C@@H](c2ccc(C3=CCCCC3)cc2)[C@@H](CO)N1CC1CC1)C(C)=O	> 10 µM (inactive)
C[C@H](CO)N1C[C@H](C)[C@H](CN(C)C(=O)Nc2ccnc(N3CCOCC3)c2)OCc2cnnn2CCCC1=O	> 10 µM (inactive)
COCC(=O)N1[C@H](CNC(=O)c2ccccn2)[C@H](c2ccccc2)[C@@H]1CO	> 10 µM (inactive)
Cc1noc(C)c1NC(=O)N(C)C[C@@H]1OCc2cnnn2CCCC(=O)N([C@H](C)CO)C[C@@H]1C	> 10 µM (inactive)
O=C(CC(F)(F)F)N1C[C@@H]2[C@H](c3ccccc31)[C@@H](CO)N2C(=O)c1ccncc1	> 10 µM (inactive)
C[C@H](CO)N1C[C@H](C)[C@H](CN(C)C(=O)NC2CCCCC2)OCc2cn(nn2)CCCC1=O	> 10 µM (inactive)
COc1ccccc1C(=O)N1C[C@@H]2[C@H](c3ccccc31)[C@H](CO)N2CC1CCCC1	> 10 µM (inactive)
OC[C@@H]1[C@H](c2ccc(-c3ccc(F)cc3)cc2)[C@H](CNC2CCCC2)N1CCC(F)(F)F	> 10 µM (inactive)
O=C(Cc1ccccn1)N1[C@@H](CO)[C@@H]2c3ccccc3NC[C@@H]21	> 10 µM (inactive)
CC(C)N(C[C@H]1[C@@H](c2ccccc2)[C@H](CO)N1S(C)(=O)=O)C(=O)CN(C)C	> 10 µM (inactive)
CCS(=O)(=O)N(C)C[C@@H]1N[C@H](CO)[C@@H]1c1ccc(-c2ccccc2F)cc1	> 10 µM (inactive)
CCN(C[C@H]1[C@@H](c2ccccc2)[C@H](CO)N1C(=O)COC)S(C)(=O)=O	> 10 µM (inactive)
C/C=C/c1ccc([C@H]2[C@@H](CO)N(C(=O)C3CC3)[C@@H]2CNC(=O)NC(C)C)cc1	> 10 µM (inactive)
CC(=O)N1[C@@H](CO)[C@H](c2ccccc2)[C@@H]1CN(CC(C)C)C(=O)c1ccccn1	> 10 µM (inactive)
O=C(c1cnccn1)N1C[C@H]2[C@@H](c3ccccc31)[C@@H](CO)N2CC1CCCC1	> 10 µM (inactive)
